For assay [1], the target named is T1, α5β1 integrin mediated adhesion of K562 cells (Homo sapiens, UniProt P05556+P08648).
T1 construct: host or cells: K562 human erythroleukaemia cells
Kind of assay: In vitro cell adhesion assay (b): inhibition of adhesion of K562 cells to fibronectin fragment Fn9-10, crystal violet stain. The class given is cell-based. As to conditions: for activity in the cell adhesion assay (b): K562 cells, result in words; for IC50: K562 cells on Fn9-10, geometric mean of the measured IC50 values, n = number of tests. An excerpt: (b) In Vitro Cell Adhesion Assay
The assay determined the ability of compounds to inhibit the α5β1 integrin mediated adhesion of K562 cells to the ligand, a fragment of human fibronectin. The human K562 erythroleukaemia cell line (LGC Promochem, Teddington, Middlesex, UK, Catalogue No. CCL-243) was routinely maintained in RPMI 1640 medium (Sigma-Aldrich Company Ltd, Gillingham, Dorset SP8 4XT, Catalogue No. R0883) containing 10% heat-inactivated foetal calf serum (PAA lab GmbH, Pasching, Austria Catalogue No. PAA-A15-043) and 1% glutamax-1 (Invitrogen Ltd. Paisley, UK Catalogue No. 35050-038) at 37° C. with 5% CO2 at densities between 1×10^5 and 1×10^6 cells/ml.
A DNA fragment encoding the domains 9-10 (amino-acids 1325-1509) of human fibronectin (Swiss-Prot Accession No. P02751) was isolated from cDNA libraries using standard molecular biology and PCR cloning techniques. The cDNA fragment was sub-cloned into a pT7#3.3 expression vector containing a GST-epitope tag (developed at AstraZeneca; Bagnall et al., Protein Expression and Purification, 2003, 27: 1-11), and the fragment termed Fn9-10. Following expression in E. coli, the expressed protein was purified using the GST-tag using standard purification techniques.
For adhesion assay, a 96-well flat bottomed plate (Greiner Bio one ltd., Gloucester GL10 3 SX Catalogue No. 655101) was coated overnight at 4° C. with 100 μl of 20 μg/ml Fn9-10 ligand in Dulbecco's PBS (Gibco#14190-94). The plate was then washed twice with 200 μl of PBS and blocked with 100 μl of 3% BSA (SigmaA7888) in PBS for 1 hour at 37° C. The plates were then washed again 3 times with 200 μl of PBS and left empty.
Test compounds were prepared as 10 mM stock solutions in DMSO (Sigma-Aldrich Company Ltd, Gillingham, Dorset SP8 4XT Catalogue No. 154938) and serially diluted with HBSS (Hanks Buffered Salt solution (Gibco Catalogue No. 14170-088)/2% DMSO to give a range of test concentrations at twice required final concentration. Aliquots (50 μl) of each compound dilution were placed into each well of the Fn9-10 coated plates. Each plate also contained control wells: maximum adhesion signal was created using wells containing 50 μl HBSS/2% DMSO, and minimum signal corresponding to no adhesion was created using wells containing 50 μl HBSS/2% DMSO /20 mM EDTA (Sigma Catalogue No. E7889). […]
After fixation, the ethanol was flicked off to waste and 100 μl of 0.1% Crystal violet stain was added to each well, and incubated at ambient temperature for 15 minutes. […] Finally, 100 μl of deionised water was added to each well and the absorbance was determined at 590 nm on a spectrophotometer. The minimum value was subtracted from all values, and the absorbance signal was plotted against compound concentration to generate IC50 data.

For the next assay, the target named is recombinant human α5β1 (Homo sapiens, UniProt P05556+P08648). Kind of assay: In vitro binding assay (a): inhibition of binding of α5β1 integrin to a fragment of human fibronectin (Fn9-10), Origen electrochemiluminescence. Conditions: geometric mean of the measured IC50 values; n = number of tests. The text has this: (a) In Vitro Binding Assay
Sequence of recombinant human α5β1 (P08648 42-1049): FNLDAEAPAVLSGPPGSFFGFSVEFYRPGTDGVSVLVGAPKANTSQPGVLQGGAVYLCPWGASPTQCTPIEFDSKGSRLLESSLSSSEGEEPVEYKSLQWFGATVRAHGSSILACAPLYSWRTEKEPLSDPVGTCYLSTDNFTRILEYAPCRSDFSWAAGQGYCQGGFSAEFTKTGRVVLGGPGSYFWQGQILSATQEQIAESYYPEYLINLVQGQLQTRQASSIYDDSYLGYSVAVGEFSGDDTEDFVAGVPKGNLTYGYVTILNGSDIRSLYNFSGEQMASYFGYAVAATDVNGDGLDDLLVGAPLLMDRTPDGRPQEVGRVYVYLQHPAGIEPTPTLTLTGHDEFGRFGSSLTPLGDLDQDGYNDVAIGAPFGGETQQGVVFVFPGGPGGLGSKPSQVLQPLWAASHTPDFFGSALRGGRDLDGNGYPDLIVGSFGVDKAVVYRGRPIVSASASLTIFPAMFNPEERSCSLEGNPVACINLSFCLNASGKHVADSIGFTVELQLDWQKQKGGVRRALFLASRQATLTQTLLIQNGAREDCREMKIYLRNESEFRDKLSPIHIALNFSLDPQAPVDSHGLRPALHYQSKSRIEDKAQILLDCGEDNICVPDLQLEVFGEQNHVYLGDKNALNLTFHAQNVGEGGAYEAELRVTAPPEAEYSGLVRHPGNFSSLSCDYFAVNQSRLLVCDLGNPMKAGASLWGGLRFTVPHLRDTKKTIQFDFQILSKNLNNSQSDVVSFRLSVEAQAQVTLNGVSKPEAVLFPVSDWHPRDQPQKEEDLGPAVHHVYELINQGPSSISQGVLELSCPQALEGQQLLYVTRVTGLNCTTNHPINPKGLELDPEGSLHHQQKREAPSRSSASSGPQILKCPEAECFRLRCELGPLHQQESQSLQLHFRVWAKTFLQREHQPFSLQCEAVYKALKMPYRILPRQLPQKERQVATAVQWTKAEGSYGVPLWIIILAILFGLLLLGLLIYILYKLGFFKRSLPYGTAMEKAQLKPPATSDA
Sequence of recombinant human α5β1 (P05556 21-798): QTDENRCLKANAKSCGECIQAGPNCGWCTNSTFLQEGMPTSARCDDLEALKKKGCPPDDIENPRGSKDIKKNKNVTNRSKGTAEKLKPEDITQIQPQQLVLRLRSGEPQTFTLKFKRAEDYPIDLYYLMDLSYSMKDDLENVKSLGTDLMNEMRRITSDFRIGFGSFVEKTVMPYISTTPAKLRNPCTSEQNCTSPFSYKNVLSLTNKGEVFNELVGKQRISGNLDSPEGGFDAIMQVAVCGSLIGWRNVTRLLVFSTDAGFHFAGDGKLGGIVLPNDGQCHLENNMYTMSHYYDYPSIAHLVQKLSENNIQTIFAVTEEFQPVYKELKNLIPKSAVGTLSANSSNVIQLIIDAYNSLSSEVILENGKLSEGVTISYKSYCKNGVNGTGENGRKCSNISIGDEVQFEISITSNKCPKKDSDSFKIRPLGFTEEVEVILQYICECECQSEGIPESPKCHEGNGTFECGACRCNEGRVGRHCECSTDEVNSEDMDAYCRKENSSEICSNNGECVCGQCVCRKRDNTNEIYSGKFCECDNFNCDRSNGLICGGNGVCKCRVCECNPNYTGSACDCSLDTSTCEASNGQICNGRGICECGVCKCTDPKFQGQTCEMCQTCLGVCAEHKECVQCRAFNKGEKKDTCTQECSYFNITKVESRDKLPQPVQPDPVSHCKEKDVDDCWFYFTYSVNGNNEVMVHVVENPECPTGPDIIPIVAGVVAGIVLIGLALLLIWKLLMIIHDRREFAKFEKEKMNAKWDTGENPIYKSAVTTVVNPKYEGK
The assay determined the ability of compounds to inhibit binding of α5β1 integrin to a cognate ligand, a fragment of human fibronectin. The assay used Origen technology (IGEN International) to measure the compound activity. Briefly, α5β1 integrin was coated onto epoxy-paramagnetic beads (Dynal Biotech UK, Bromborough, Wirral, CH62 3QL, UK, Catalogue No 140.11) and biotinylated-fibronectin ligand was coupled to strepatividin labeled Tag-NHS-Ester (BioVeris Corporation, Witney, Oxfordshire, OX28 4GE, UK, Catalogue No 110034). The ruthenium-labeled tag emits an electrochemiluminescence signal upon stimulation which is detected by the Origen reader. […]
20 μg of recombinant human α5β1 was coated onto 4×10(7) epoxy-paramagnetic beads according to manufacturers instructions at 4° C. for 24 hours. Integrin coating and corresponding activity was subsequently measured for each batch but typically, 25 ng of coated protein was used per assay well. […]
For the assay, 25 ng (20 ul) of a5b 1-bead suspension and 40 μl of the Fn9-10/Tag pre-incubated solution were added to each well containing 20 μl of compound or control solution. Assay plates were then incubated at room temperature for a minimum of 6 hours before being analysed on an Origen plate reader. […]

The results in this text go back to patent US20080045521A1, “PHENYLALANINE DERIVATIVES” (AstraZeneca AB, priority 2006, published 2008).

By IC50 is commonly meant the concentration that gives 50% inhibition.

T1 sequence (P08648 42-894 limits assumed): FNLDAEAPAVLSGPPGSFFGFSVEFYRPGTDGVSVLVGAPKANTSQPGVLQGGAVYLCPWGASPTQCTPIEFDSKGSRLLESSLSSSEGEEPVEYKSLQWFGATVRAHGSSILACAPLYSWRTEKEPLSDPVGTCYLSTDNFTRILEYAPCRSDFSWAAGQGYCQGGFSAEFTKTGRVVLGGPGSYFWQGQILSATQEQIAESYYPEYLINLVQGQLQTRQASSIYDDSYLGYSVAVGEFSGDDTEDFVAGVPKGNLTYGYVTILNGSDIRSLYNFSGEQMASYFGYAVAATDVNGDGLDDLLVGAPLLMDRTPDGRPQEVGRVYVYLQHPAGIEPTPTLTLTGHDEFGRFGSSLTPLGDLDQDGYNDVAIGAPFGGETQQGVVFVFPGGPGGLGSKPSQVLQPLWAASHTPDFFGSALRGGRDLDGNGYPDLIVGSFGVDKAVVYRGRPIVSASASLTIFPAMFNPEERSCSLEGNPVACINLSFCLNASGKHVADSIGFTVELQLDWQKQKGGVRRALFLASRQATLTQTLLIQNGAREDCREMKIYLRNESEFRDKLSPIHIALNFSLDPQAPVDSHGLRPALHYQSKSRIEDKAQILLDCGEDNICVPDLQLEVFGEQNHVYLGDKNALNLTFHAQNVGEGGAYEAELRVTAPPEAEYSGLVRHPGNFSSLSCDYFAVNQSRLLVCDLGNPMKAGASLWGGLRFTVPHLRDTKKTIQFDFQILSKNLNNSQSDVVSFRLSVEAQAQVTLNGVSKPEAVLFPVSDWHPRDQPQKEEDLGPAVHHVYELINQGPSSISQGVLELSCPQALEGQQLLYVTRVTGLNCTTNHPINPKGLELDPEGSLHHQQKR
T1 sequence (P08648 895-1049 partner limits assumed): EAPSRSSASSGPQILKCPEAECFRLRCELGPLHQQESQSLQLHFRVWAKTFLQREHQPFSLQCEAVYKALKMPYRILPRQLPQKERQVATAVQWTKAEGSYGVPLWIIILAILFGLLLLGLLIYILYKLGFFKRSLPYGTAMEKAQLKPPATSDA
T1 sequence (P05556 21-798): as the sequence (P05556 21-798) above

As for `O=C(N[C@@H](Cc1cccc(OCCNc2ccccn2)c1)C(=O)O)c1c(Cl)cccc1Cl` [N-(2,6-dichlorobenzoyl)-3-[2-(pyridin-2-ylamino)ethoxy]-L-phenylalanine], the “activity in the cell adhesion assay (b)” value in assay [1] is “low activity”.
`O=C(N[C@@H](Cc1ccc(OCCc2ccc3c(n2)NCCC3)cc1)C(=O)O)c1c(Cl)cccc1Cl` [Example 3, N-(2,6-dichlorobenzoyl)-O-[2-(5,6,7,8-tetrahydro-1,8-naphthyridin-2-yl)ethyl]-L-tyrosine]: the half-maximal inhibitory concentration (IC50) worked out at 0.4 nM at recombinant human α5β1 and 2 nM in assay [1].
For `CNc1cccc(CCCc2ccc(C[C@H](NC(=O)c3c(Cl)cccc3Cl)C(=O)O)s2)n1` [Example 29, N-(2,6-dichlorobenzoyl)-3-(5-{3-[6-(methylamino)pyridin-2-yl]propyl}-2-thienyl)-L-alanine], the figures for the concentration for half-maximal inhibition (IC50) (at recombinant human α5β1; in assay [1]) were 2 nM and 31 nM, respectively.
With `O=C(N[C@@H](Cc1cccc(OCCCCNc2ccccn2)c1)C(=O)O)c1c(Cl)cccc1Cl` [N-(2,6-dichlorobenzoyl)-3-[4-(pyridin-2-ylamino)butoxy]-L-phenylalanine], in assay [1], the “activity in the cell adhesion assay (b)” value is given as “low activity”.
